In patent publication US20250101028A1, “HETEROCYCLIC COMPOUNDS, COMPOSITIONS THEREOF, AND METHODS OF TREATMENT THEREWITH” (BeiGene, Ltd., priority 2022, published 2025):

Molecular target: T1, GST-tagged GDP-loaded KRAS G12V (amino acids 1-169) (Homo sapiens, UniProt P01116, G12V)
T1 construct: GST-tagged GDP-loaded KRAS G12V (amino acids 1-169); made in house; host or cells: E. coli
Assay: KRAS G12V probe displacement assay (TR-FRET)
Assay type: binding
Details: displacement of biotinylated probe 2 from GDP-loaded KRAS G12V
Description: KRAS WT and KRAS G12V Probe Displacement Assay
This assay was used to identify compounds which bind to GDP-loaded KRAS protein and are able to displace a biotinylated probe occupying the KRAS binding site. GST-tagged GDP-loaded WT KRAS (amino acids 1-169) and GST-tagged GDP-loaded KRAS G12V (amino acids 1-169) were expressed in E. coli and purified in house. All protein and reaction solutions were prepared in assay buffer containing 50 mM HEPES pH7.5, 50 mM NaCl, 1 mM MgCl2, 1 mM TCEP, 0.01% BSA, and 0.008% Brij-35. Purified WT KRAS (3 nM final concentration) or KRAS G12V protein (2 nM final concentration) was incubated with a 3-fold serially diluted compound in the assay plate (384 well microplate, black, Corning). Plates are incubated at 24° C. for 1 hr. Following the incubation, biotinylated probe 1 (60 nM final assay concentration) for WT KRAS and biotinylated probe 2 (2.5 nM final assay concentration) for KRAS G12V was added to the assay plate, respectively. After 1 hr incubation at 24° C., Mab Anti-GST-Tb cryptate (Cisbio) and Streptavidin-XL665 (Cisbio) were added and further incubated at 24° C. for another 1 hr. The TR-FRET signals (ex337 nm, em665 nm/620 nm) were read on BMG PHERAstar FSX instrument. The inhibition percentage of KRAS protein binding with biotinylated probe in presence of increasing concentrations of compounds was calculated based on the ratio of fluorescence at 665 nm to that at 620 nm. The IC50 value of each compound was calculated from fitting the data to the four-parameter logistic model by Dotmatics.

T1 sequence (P01116 1-169 isoform P01116-2 G12V): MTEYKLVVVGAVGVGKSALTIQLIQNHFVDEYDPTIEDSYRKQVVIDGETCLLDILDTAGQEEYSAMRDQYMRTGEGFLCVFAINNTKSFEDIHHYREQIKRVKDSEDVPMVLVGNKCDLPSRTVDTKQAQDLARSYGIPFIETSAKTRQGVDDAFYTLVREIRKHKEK

Compound	IC50
CC1(C#N)CN(c2nc(OC[C@@]34CCCN3C[C@H](F)C4)nc3c(F)c(-c4ccc(F)c5sc(N)nc45)c(C(F)(F)F)cc23)C1 [Example 42, 1-(7-(2-amino-7-fluorobenzo[d]thiazol-4-yl)-8-fluoro-2-(((2R,7aS)-2-fluorotetrahydro-1H-pyrrolizin-7a(5H)-yl)methoxy)-6-(trifluoromethyl)quinazolin-4-yl)-3-methylazetidine-3-carbonitrile]	70 nM
CS(=O)(=O)C1CN(c2nc(OC[C@@]34CCCN3C[C@H](F)C4)nc3c(F)c(-c4ccc(F)c5sc(N)nc45)c(C(F)(F)F)cc23)C1 [Example 44, 7-fluoro-4-(8-fluoro-2-(((2R,7aS)-2-fluorotetrahydro-1H-pyrrolizin-7a(5H)-yl)methoxy)-4-(3-(methylsulfonyl)azetidin-1-yl)-6-(trifluoromethyl)quinazolin-7-yl)benzo[d]thiazol-2-amine]	14 nM
COC1CN(c2nc(OC[C@@]34CCCN3C[C@H](F)C4)nc3c(F)c(-c4ccc(F)c5sc(N)nc45)c(C(F)(F)F)cc23)C1 [Example 45, 7-fluoro-4-(8-fluoro-2-(((2R,7aS)-2-fluorotetrahydro-1H-pyrrolizin-7a(5H)-yl)methoxy)-4-(3-methoxyazetidin-1-yl)-6-(trifluoromethyl)quinazolin-7-yl)benzo[d]thiazol-2-amine]	15 nM
CC1(O)CN(c2nc(OC[C@@]34CCCN3C[C@H](F)C4)nc3c(F)c(-c4ccc(F)c5sc(N)nc45)c(C(F)(F)F)cc23)C1 [Example 46, 1-(7-(2-amino-7-fluorobenzo[d]thiazol-4-yl)-8-fluoro-2-(((2R,7aS)-2-fluorotetrahydro-1H-pyrrolizin-7a(5H)-yl)methoxy)-6-(trifluoromethyl)quinazolin-4-yl)-3-methylazetidin-3-ol]	7.1 nM
CC1C(O)CN1c1nc(OC[C@@]23CCCN2C[C@H](F)C3)nc2c(F)c(-c3ccc(F)c4sc(N)nc34)c(C(F)(F)F)cc12 (stereo partly drawn) [Example 47, 1-(7-(2-amino-7-fluorobenzo[d]thiazol-4-yl)-8-fluoro-2-(((2R,7aS)-2-fluorotetrahydro-1H-pyrrolizin-7a(5H)-yl)methoxy)-6-(trifluoromethyl)quinazolin-4-yl)-2-methylazetidin-3-ol]	1.9 nM
Nc1nc2c(-c3c(C(F)(F)F)cc4c(N5CC(CO)C5)nc(OC[C@@]56CCCN5C[C@H](F)C6)nc4c3F)ccc(F)c2s1 [Example 48, (1-(7-(2-amino-7-fluorobenzo[d]thiazol-4-yl)-8-fluoro-2-(((2R,7aS)-2-fluorotetrahydro-1H-pyrrolizin-7a(5H)-yl)methoxy)-6-(trifluoromethyl)quinazolin-4-yl)azetidin-3-yl)methanol]	4.1 nM
Nc1nc2c(-c3c(C(F)(F)F)cc4c(N5CC[C@@H]5CO)nc(OC[C@@]56CCCN5C[C@H](F)C6)nc4c3F)ccc(F)c2s1 [Example 49, ((2R)-1-(7-(2-amino-7-fluorobenzo[d]thiazol-4-yl)-8-fluoro-2-(((2R,7aS)-2-fluorotetrahydro-1H-pyrrolizin-7a(5H)-yl)methoxy)-6-(trifluoromethyl)quinazolin-4-yl)azetidin-2-yl) methanol]	3 nM
Nc1nc2c(-c3c(C(F)(F)F)cc4c(N5CCCC5)nc(OC[C@@]56CCCN5C[C@H](F)C6)nc4c3F)ccc(F)c2s1 [Example 50, 7-fluoro-4-(8-fluoro-2-(((2R,7aS)-2-fluorotetrahydro-1H-pyrrolizin-7a(5H)-yl)methoxy)-4-(pyrrolidin-1-yl)-6-(trifluoromethyl)quinazolin-7-yl)benzo[d]thiazol-2-amine]	13 nM
Nc1nc2c(-c3c(C(F)(F)F)cc4c(N5CC[C@@H](F)C5)nc(OC[C@@]56CCCN5C[C@H](F)C6)nc4c3F)ccc(F)c2s1 [Example 51, 7-fluoro-4-(8-fluoro-4-((R)-3-fluoropyrrolidin-1-yl)-2-(((2R,7aS)-2-fluorotetrahydro-1H-pyrrolizin-7a(5H)-yl)methoxy)-6-(trifluoromethyl)quinazolin-7-yl)benzo[d]thiazol-2-amine]	11 nM
Nc1nc2c(-c3c(C(F)(F)F)cc4c(N5CC[C@H](F)C5)nc(OC[C@@]56CCCN5C[C@H](F)C6)nc4c3F)ccc(F)c2s1 [Example 52, 7-fluoro-4-(8-fluoro-4-((S)-3-fluoropyrrolidin-1-yl)-2-(((2R,7aS)-2-fluorotetrahydro-1H-pyrrolizin-7a(5H)-yl)methoxy)-6-(trifluoromethyl)quinazolin-7-yl)benzo[d]thiazol-2-amine]	19 nM
Nc1nc2c(-c3c(C(F)(F)F)cc4c(N5CCC(F)(F)C5)nc(OC[C@@]56CCCN5C[C@H](F)C6)nc4c3F)ccc(F)c2s1 [Example 53, 4-(4-(3,3-difluoropyrrolidin-1-yl)-8-fluoro-2-(((2R,7aS)-2-fluorotetrahydro-1H-pyrrolizin-7a(5H)-yl)methoxy)-6-(trifluoromethyl)quinazolin-7-yl)-7-fluorobenzo[d]thiazol-2-amine]	12 nM
C[C@@H]1CCN(c2nc(OC[C@@]34CCCN3C[C@H](F)C4)nc3c(F)c(-c4ccc(F)c5sc(N)nc45)c(C(F)(F)F)cc23)C1 [Example 54, 7-fluoro-4-(8-fluoro-2-(((2R,7aS)-2-fluorotetrahydro-1H-pyrrolizin-7a(5H)-yl)methoxy)-4-((R)-3-methylpyrrolidin-1-yl)-6-(trifluoromethyl)quinazolin-7-yl)benzo[d]thiazol-2-amine]	41 nM
C[C@@H]1CCCN1c1nc(OC[C@@]23CCCN2C[C@H](F)C3)nc2c(F)c(-c3ccc(F)c4sc(N)nc34)c(C(F)(F)F)cc12 [Example 55, 7-fluoro-4-(8-fluoro-2-(((2R,7aS)-2-fluorotetrahydro-1H-pyrrolizin-7a(5H)-yl)methoxy)-4-((R)-2-methylpyrrolidin-1-yl)-6-(trifluoromethyl)quinazolin-7-yl)benzo[d]thiazol-2-amine]	168 nM
C[C@H]1CCCN1c1nc(OC[C@@]23CCCN2C[C@H](F)C3)nc2c(F)c(-c3ccc(F)c4sc(N)nc34)c(C(F)(F)F)cc12 [Example 56, 7-fluoro-4-(8-fluoro-2-(((2R,7aS)-2-fluorotetrahydro-1H-pyrrolizin-7a(5H)-yl)methoxy)-4-((S)-2-methylpyrrolidin-1-yl)-6-(trifluoromethyl)quinazolin-7-yl)benzo[d]thiazol-2-amine]	22 nM
CC1(C)CCCN1c1nc(OC[C@@]23CCCN2C[C@H](F)C3)nc2c(F)c(-c3ccc(F)c4sc(N)nc34)c(C(F)(F)F)cc12 [Example 57, 4-(4-(2,2-dimethylpyrrolidin-1-yl)-8-fluoro-2-(((2R,7aS)-2-fluorotetrahydro-1H-pyrrolizin-7a(5H)-yl)methoxy)-6-(trifluoromethyl)quinazolin-7-yl)-7-fluorobenzo[d]thiazol-2-amine]	180 nM
CC[C@@H]1CCCN1c1nc(OC[C@@]23CCCN2C[C@H](F)C3)nc2c(F)c(-c3ccc(F)c4sc(N)nc34)c(C(F)(F)F)cc12 [Example 58, 4-(4-((R)-2-ethylpyrrolidin-1-yl)-8-fluoro-2-(((2R,7aS)-2-fluorotetrahydro-1H-pyrrolizin-7a(5H)-yl)methoxy)-6-(trifluoromethyl)quinazolin-7-yl)-7-fluorobenzo[d]thiazol-2-amine]	40 nM
CC[C@H]1CCCN1c1nc(OC[C@@]23CCCN2C[C@H](F)C3)nc2c(F)c(-c3ccc(F)c4sc(N)nc34)c(C(F)(F)F)cc12 [Example 59, 4-(4-((S)-2-ethylpyrrolidin-1-yl)-8-fluoro-2-(((2R,7aS)-2-fluorotetrahydro-1H-pyrrolizin-7a(5H)-yl)methoxy)-6-(trifluoromethyl)quinazolin-7-yl)-7-fluorobenzo[d]thiazol-2-amine]	27 nM
N#CCC1CCN(c2nc(OC[C@@]34CCCN3C[C@H](F)C4)nc3c(F)c(-c4ccc(F)c5sc(N)nc45)c(C(F)(F)F)cc23)C1 (stereo partly drawn) [Example 61, 2-(1-(7-(2-amino-7-fluorobenzo[d]thiazol-4-yl)-8-fluoro-2-(((2R,7aS)-2-fluorotetrahydro-1H-pyrrolizin-7a(5H)-yl)methoxy)-6-(trifluoromethyl)quinazolin-4-yl)pyrrolidin-3-yl)acetonitrile]	14 nM
Nc1nc2c(-c3c(C(F)(F)F)cc4c(N5CC6CC5C6)nc(OC[C@@]56CCCN5C[C@H](F)C6)nc4c3F)ccc(F)c2s1 [Example 62, 4-(4-(2-azabicyclo[2.1.1]hexan-2-yl)-8-fluoro-2-(((2R,7aS)-2-fluorotetrahydro-1H-pyrrolizin-7a(5H)-yl)methoxy)-6-(trifluoromethyl)quinazolin-7-yl)-7-fluorobenzo[d]thiazol-2-amine]	22 nM
Nc1nc2c(-c3c(C(F)(F)F)cc4c(N5CC[C@@H](O)C5)nc(OC[C@@]56CCCN5C[C@H](F)C6)nc4c3F)ccc(F)c2s1 [Example 63, (3R)-1-(7-(2-amino-7-fluorobenzo[d]thiazol-4-yl)-8-fluoro-2-(((2R,7aS)-2-fluorotetrahydro-1H-pyrrolizin-7a(5H)-yl)methoxy)-6-(trifluoromethyl)quinazolin-4-yl)pyrrolidin-3-ol]	11 nM
